Measured values from patent US5428015A, “Vasoactive intestinal polypeptide analogues and use thereof” (Sana Kagaku Kenkyusho Co., Ltd., priority 1990, dated 1995).

Assays:
PCA reaction = assay: Anti-allergic action: passive cutaneous anaphylaxis test (PCA reaction); type: in vivo; settings: rat, injected into a vein
Procedure: A rat was immunized with egg-albumin suspended in aluminum hydroxide gel in a conventional manner and a blood letting was carried out to obtain immune serum rich in IgE.
A male rat was anethtized with ether and hairs on back were sheared to intradenally inject by 0.1 ml of the immune serum solution described in Item (1) and diluted to 5-folds, at both sides with a certain distance from a medial line on the back. After 72 hours, a mixed solution of egg albumin (5 mg/kg), 2% Evans blue and a test compound ([L-Leu^17 ]-VIP-Hse or pure native VIP) or disodium cromoglycate was injected into a vein. After 30 minutes from an occasion of PCA reaction, the experimental animal was killed and pealed-off the skin to obtain a piece of the skin dyed with the coloring matter.
The coloring matter was extracted in accordance with the method described by Katayama ["Microbio. Immunol.", Vol. 22, No. 2, pages 89 (1978)] and an amount thereof was measured at 620 nm in wave length to calculate an inhibition of the PCA reaction.

arterial pressure = assay: Hypotensing action: arterial pressure after injection in femoral artery; type: in vivo; settings: anethtized beagle dog, 0.02-10 μg/kg
Procedure: In a femoral artery of anethtized beagle dog, each of the VIP analogues as Test Samples was injected in a dose of 0.02-10 μg/kg and measured an arterial pressure to prepare a chart showing a relation between the dose and change in blood pressure and check an amount of dose which shall cause a reduction of 15 mmHg in blood pressure.

Compound | Inhibition (%) of the PCA reaction (PCA reaction; dose 0.01 mg/kg) [%] | Inhibition (%) of the PCA reaction (PCA reaction; dose 0.1 mg/kg) [%] | Inhibition (%) of the PCA reaction (PCA reaction; dose 1.0 mg/kg) [%] | amount of dose causing a reduction of 15 mmHg in blood pressure, relative value (native VIP = 100%) (arterial pressure) [%]
O=C([O-])c1cc(=O)c2c(OCC(O)COc3cccc4oc(C(=O)[O-])cc(=O)c34)cccc2o1.[Na+].[Na+] [Disodium cromoglycate] | 5 | 28 | 31 | –
CC[C@H](C)[C@H](NC(=O)[C@H](CO)NC(=O)[C@H](CC(N)=O)NC(=O)[C@H](CC(C)C)NC(=O)[C@H](Cc1ccc(O)cc1)NC(=O)[C@H](CCCCN)NC(=O)[C@H](CCCCN)NC(=O)[C@@H](NC(=O)[C@H](C)NC(=O)[C@H](CCSC)NC(=O)[C@H](CCC(N)=O)NC(=O)[C@H](CCCCN)NC(=O)[C@H](CCCNC(=N)N)NC(=O)[C@H](CC(C)C)NC(=O)[C@H](CCCNC(=N)N)NC(=O)[C@@H](NC(=O)[C@H](Cc1ccc(O)cc1)NC(=O)[C@H](CC(N)=O)NC(=O)[C@H](CC(=O)O)NC(=O)[C@@H](NC(=O)[C@H](Cc1ccccc1)NC(=O)[C@@H](NC(=O)[C@H](C)NC(=O)[C@H](CC(=O)O)NC(=O)[C@H](CO)NC(=O)[C@@H](N)Cc1c[nH]cn1)C(C)C)[C@@H](C)O)[C@@H](C)O)C(C)C)C(=O)N[C@@H](CC(C)C)C(=O)N[C@@H](CC(N)=O)C(N)=O [Native VIP, vasoactive intestinal polypeptide] | 23 | 72 | 67 | 100
[L-Leu^17 ]-VIP-Hse-NH(CH2)9 CH3 [[L-Leu^17]-VIP-NH(CH2)9 CH3] | – | – | – | 68
